Assay results published in US10058598B2, “Peptides and combination of peptides for use in immunotherapy against various cancers” (immatics biotechnologies GmbH, priority 2015, dated 2018).

Tests used:
[1] = tested on: CD8+ T cells of healthy HLA-A*02+ donors; assay: In vitro immunogenicity: T-cell priming with aAPCs loaded with HLA-A*02/peptide complexes and anti-CD28, pMHC multimer readout; format: cell-based, human; conditions: in vitro immunogenicity, HLA-A*02 peptides (SEQ ID No 1-251), pMHC multimer readout
From the text: FIGS. 4A to 4D show exemplary results of peptide-specific in vitro CD8+ T cell responses of a healthy HLA-A*02+ donor. CD8+ T cells were primed using artificial APCs coated with anti-CD28 mAb and HLA-A*02 in complex with SeqID No 27 peptide (FIG. 4A, left panel), SeqID No 229 peptide (FIG. 4B, left panel), SeqID No 230 peptide (FIG. 4C, left panel) and SeqID No 235 peptide (FIG. 4D, left panel), respectively. After three cycles of stimulation, the detection of peptide-reactive cells was performed by 2D multimer staining with A*02/SeqID No 27 (FIG. 4A), A*02/SeqID No 229 (FIG. 4B), A*02/SeqID No 230 (FIG. 4C) or A*02/SeqID No 235 (FIG. 4D). Right panels (FIGS. 4A, 4B, 4C and 4D) show control staining of cells stimulated with irrelevant A*02/peptide complexes. Viable singlet cells were gated for CD8+ lymphocytes. Boolean gates helped excluding false-positive events detected with multimers specific for different peptides. Frequencies of specific multimer+ cells among CD8+ lymphocytes are indicated.
In order to obtain information regarding the immunogenicity of the TUMAPs of the present invention, the inventors performed investigations using an in vitro T-cell priming assay based on repeated stimulations of CD8+ T cells with artificial antigen presenting cells (aAPCs) loaded with peptide/MHC complexes and anti-CD28 antibody.
In order to perform in vitro stimulations by artificial antigen presenting cells loaded with peptide-MHC complex (pMHC) and anti-CD28 antibody, the inventors first isolated CD8+ T cells from fresh HLA-A*02 leukapheresis products via positive selection using CD8 microbeads (Miltenyi Biotec, Bergisch-Gladbach, Germany) of healthy donors obtained from the University clinics Mannheim, Germany, after informed consent.
PBMCs and isolated CD8+ lymphocytes were incubated in T-cell medium (TCM) until use consisting of RPMI-Glutamax (Invitrogen, Karlsruhe, Germany) supplemented with 10% heat inactivated human AB serum (PAN-Biotech, Aidenbach, Germany), 100 U/ml Penicillin/100 μg/ml Streptomycin (Cambrex, Cologne, Germany), 1 mM sodium pyruvate (CC Pro, Oberdorla, Germany), 20 μg/ml Gentamycin (Cambrex). 2.5 ng/ml IL-7 (PromoCell, Heidelberg, Germany) and 10 U/ml IL-2 (Novartis Pharma, Nurnberg, Germany) were also added to the TCM at this step.
Generation of pMHC/anti-CD28 coated beads, T-cell stimulations and readout was performed in a highly defined in vitro system using four different pMHC molecules per stimulation condition and 8 different pMHC molecules per readout condition.
The purified co-stimulatory mouse IgG2a anti human CD28 Ab 9.3 (Jung et al., 1987) was chemically biotinylated using Sulfo-N-hydroxysuccinimidobiotin as recommended by the manufacturer (Perbio, Bonn, Germany). Beads used were 5.6 μm diameter streptavidin coated polystyrene particles (Bangs Laboratories, IIIinois, USA).
pMHC used for positive and negative control stimulations were A*0201/MLA-001 (peptide […] (SEQ ID NO. 303) from modified Melan-A/MART-1) and A*0201/DDX5-001 ([…] from DDX5, SEQ ID NO. 304), respectively.
800.000 beads/200 μl were coated in 96-well plates in the presence of 4×12.5 ng different biotin-pMHC, washed and 600 ng biotin anti-CD28 were added subsequently in a volume of 200 μl. Stimulations were initiated in 96-well plates by co-incubating […] CD8+ T cells with 2×10^5 washed coated beads in 200 μl TCM supplemented with 5 ng/ml IL-12 (PromoCell) for 3 days at 37° C. Half of the medium was then exchanged by fresh TCM supplemented with 80 U/ml IL-2 and incubating was continued for 4 days at 37° C. This stimulation cycle was performed for a total of three times. For the pMHC multimer readout using 8 different pMHC molecules per condition, a two-dimensional combinatorial coding approach was used as previously described (Andersen et al., 2012) with minor modifications encompassing coupling to 5 different fluorochromes. […]

HLA-A*02 = assay: MHC binding assay: UV-ligand exchange and beta2m ELISA, peptide exchange yield; design: species or system human; conditions: binding to HLA-A*02, UV-ligand exchange, β2m ELISA
From the text: Candidate peptides for T cell based therapies according to the present invention were further tested for their MHC binding capacity (affinity). The individual peptide-MHC complexes were produced by UV-ligand exchange, where a UV-sensitive peptide is cleaved upon UV-irradiation, and exchanged with the peptide of interest as analyzed. Only peptide candidates that can effectively bind and stabilize the peptide-receptive MHC molecules prevent dissociation of the MHC complexes. To determine the yield of the exchange reaction, an ELISA was performed based on the detection of the light chain (β2m) of stabilized MHC complexes. The assay was performed as generally described in Rodenko et al. (Rodenko et al., 2006).
96 well MAXISorp plates (NUNC) were coated over night with 2 ug/ml streptavidin in PBS at room temperature, washed 4× and blocked forl h at 37° C. in 2% BSA containing blocking buffer. Refolded HLA-A*02:01/MLA-001 monomers served as standards, covering the range of 15-500 ng/ml. Peptide-MHC monomers of the UV-exchange reaction were diluted 100 fold in blocking buffer. Samples were incubated for 1 h at 37° C., washed four times, incubated with 2 ug/ml HRP conjugated anti-β2m for 1 h at 37° C., washed again and detected with TMB solution that is stopped with […]. Absorption was measured at 450 nm. Candidate peptides that show a high exchange yield (preferably higher than 50%, most preferred higher than 75%) are generally preferred for a generation and production of antibodies or fragments thereof, and/or T cell receptors or fragments thereof, as they show sufficient avidity to the MHC molecules and prevent dissociation of the MHC complexes.

Peptide exchange (HLA-A*02) | Substance | Wells positive [%] [1]
++++ (> = 75% = ++++) | 4 (KLMPGTYTL; listed as Homo sapiens) [compound 4] | + (<20% = +)
++++ (> = 75% = ++++) | 12 (GLLPLLHRA; listed as Homo sapiens) [compound 12] | ++++ (> = 70% = ++++)
 | 141 (FLDKVLVAA; listed as Homo sapiens) [compound 141] | + (<20% = +)
++++ (> = 75% = ++++) | 249 (GLCERLVSL; listed as Homo sapiens) [compound 249] | + (<20% = +)
